These results are taken from patent US10435414B2, “Tricyclic PI3K inhibitor compounds and methods of use” (Genentech, Inc., priority 2015, dated 2019).

The Ki is a measure of affinity in units of concentration, obtained from inhibition or displacement.

PI3Kα (alpha), sequence (P42336 whole entry): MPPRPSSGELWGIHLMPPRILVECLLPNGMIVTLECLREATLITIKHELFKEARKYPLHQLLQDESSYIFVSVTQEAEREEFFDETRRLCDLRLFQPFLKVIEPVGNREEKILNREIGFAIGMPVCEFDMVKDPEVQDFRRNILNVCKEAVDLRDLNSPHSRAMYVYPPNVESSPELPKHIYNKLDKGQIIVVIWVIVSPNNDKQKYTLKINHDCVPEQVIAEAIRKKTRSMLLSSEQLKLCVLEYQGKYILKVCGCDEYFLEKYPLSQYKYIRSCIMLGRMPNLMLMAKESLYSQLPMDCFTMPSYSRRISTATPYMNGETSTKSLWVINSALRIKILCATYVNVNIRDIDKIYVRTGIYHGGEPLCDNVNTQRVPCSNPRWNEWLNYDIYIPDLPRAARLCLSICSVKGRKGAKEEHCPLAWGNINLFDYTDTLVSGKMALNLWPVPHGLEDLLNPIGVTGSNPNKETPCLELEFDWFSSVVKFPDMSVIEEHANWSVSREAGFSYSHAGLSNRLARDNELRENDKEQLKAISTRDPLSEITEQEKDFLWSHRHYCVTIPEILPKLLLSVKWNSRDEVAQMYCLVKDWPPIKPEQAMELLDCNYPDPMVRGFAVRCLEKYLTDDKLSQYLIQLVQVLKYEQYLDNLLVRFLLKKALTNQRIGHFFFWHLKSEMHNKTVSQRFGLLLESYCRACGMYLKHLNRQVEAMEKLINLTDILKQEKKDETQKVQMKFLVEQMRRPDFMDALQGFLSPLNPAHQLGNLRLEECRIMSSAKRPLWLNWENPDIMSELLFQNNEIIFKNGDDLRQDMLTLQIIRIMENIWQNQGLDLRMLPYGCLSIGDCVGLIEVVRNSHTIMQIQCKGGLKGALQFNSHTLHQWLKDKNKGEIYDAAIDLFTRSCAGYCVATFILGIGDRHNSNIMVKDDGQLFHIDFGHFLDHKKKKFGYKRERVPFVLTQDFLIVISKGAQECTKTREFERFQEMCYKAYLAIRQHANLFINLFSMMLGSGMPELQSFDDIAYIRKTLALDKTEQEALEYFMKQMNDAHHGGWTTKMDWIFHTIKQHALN
PI3Kα (alpha), sequence (P27986 whole entry partner): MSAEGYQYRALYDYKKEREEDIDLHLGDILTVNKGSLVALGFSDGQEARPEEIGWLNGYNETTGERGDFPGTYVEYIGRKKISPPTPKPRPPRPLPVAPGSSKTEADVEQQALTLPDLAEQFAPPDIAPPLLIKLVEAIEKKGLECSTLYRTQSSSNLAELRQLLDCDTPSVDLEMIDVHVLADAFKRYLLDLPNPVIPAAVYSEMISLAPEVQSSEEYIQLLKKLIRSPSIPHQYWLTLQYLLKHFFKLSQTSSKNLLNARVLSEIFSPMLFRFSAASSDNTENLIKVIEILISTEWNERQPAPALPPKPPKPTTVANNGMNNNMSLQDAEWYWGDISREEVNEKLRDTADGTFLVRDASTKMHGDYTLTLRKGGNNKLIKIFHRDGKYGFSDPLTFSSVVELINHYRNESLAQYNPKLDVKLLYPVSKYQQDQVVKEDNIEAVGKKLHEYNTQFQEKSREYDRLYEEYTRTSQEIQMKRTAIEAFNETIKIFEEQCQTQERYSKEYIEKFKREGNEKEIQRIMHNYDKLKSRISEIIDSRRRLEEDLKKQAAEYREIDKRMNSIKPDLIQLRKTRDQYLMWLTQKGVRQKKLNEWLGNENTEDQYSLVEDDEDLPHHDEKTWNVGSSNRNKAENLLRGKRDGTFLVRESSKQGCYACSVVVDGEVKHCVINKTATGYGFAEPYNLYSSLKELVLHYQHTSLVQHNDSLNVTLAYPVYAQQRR

The test concerns the target PI3Kα (alpha) (Homo sapiens (Human), UniProt P42336). Nature of the test: p110α (alpha) PI3K binding assay (ADP-Glo lipid kinase reaction, Ki by Morrison equation). Type of test: biochemical. Particulars: PI3K alpha 0.2 nM, ATP 40 μM, PIP2:3PS 50 μM, 120 min, room temperature; read-out: PI3Kα-(alpha) ATP (Ki) micromolar. On the procedure: PI3K Binding assays are intended for determining the biochemical potency of small molecule PI3K inhibitors. The PI3K lipid kinase reaction is performed in the presence of PIP2:3PS lipid substrate (Promega #V1792) and ATP. Following the termination if the kinase reaction, turnover of ATP to ADP by the phosphorylation of the lipid substrate is detected using the Promega ADP-Glo™ (Promega #V1792) assay. Reactions are carried out using the following conditions:
After 120 minutes of reaction time, the kinase reaction is terminated. Any ATP remaining after the reaction is depleted, leaving only ADP. Then the Kinase Detection Reagent is added to convert ADP to ATP, which is used in a coupled luciferin/luciferase reaction. The luminescent output is measured and is correlated with kinase activity.
All reactions are carried out at room temperature. […] The reaction is started by the addition of 2 μl ATP/MgCl2. The kinase reaction buffer contains 50 mM HEPES, 50 mM NaCl, 3 mM MgCl2, 0.01% BSA, 1% DMSO, and enzyme and substrate concentrations as indicated in the above table. The reaction is stopped by the addition of 10 μL ADP-Glo reagent. Plates are read in a Perkin Elmer Envision system using luminescence mode. 10 point dose response curves are generated for each test compound. Ki values for each compound are determined using the Morrison Equation.
A general note: In ADP-Glo the light output rises with the ADP produced.
With `NC(=O)[C@H](Oc1cc2c3c(c1)nc(-c1ccc4oc(N)nc4c1)n3CCCCO2)C1CC1` (single isomer, unassigned) [Example 283], the Ki turned out to be 0.104 nM.
With `NC(=O)[C@@H](Oc1cc2c3c(c1)nc(-c1ccc4oc(N)nc4c1)n3CCCCO2)C1CC1` (single isomer, unassigned) [Example 284] the figure was less than 0.02 nM; with `NC(=O)[C@H](Oc1cc2c3c(c1)nc(-c1cc(F)c4oc(N)nc4c1)n3CCCCO2)C1CC1` (single isomer, unassigned) [Example 288], 0.1 nM.
With `NC(=O)[C@@H](Oc1cc2c3c(c1)nc(-c1cc(F)c4oc(N)nc4c1)n3CCCCO2)C1CC1` (single isomer, unassigned) [Example 289] the figure was less than 0.02 nM.
